Legend:
NB cells = system: NB cells; design: method as in PMID 28326012; conditions: cited from earlier work; for proliferation, migration, invasion, and sphere formation of NB cells: AR antagonists, hormone-free medium
LNCaP cells = system: LNCaP cells; design: method as in Supplement [30]; key: Positive: Abiraterone acetate alone inhibited the progression of cancer; Negative: Abiraterone acetate could not inhibit the progression of cancer; conditions: Prostate Cancer, 3.5 mg/kg/day, i.p.; ref Supplement [30]; cited from earlier work
SK-N-BE (2) cells = test: MTT cell viability assay, SK-N-BE (2); assay type: cell-based; conditions: Homo sapiens, SKNBE2, NB cell line, 72 h
Experimental: (§1) N2a, SH-SY5Y, SK-N-BE (2), 10A, HUVEC, HL7702 cells were plated in 96-well plates at 8,000 cells/well, respectively, in complete media in triplicate wells for each dose and cultured for 18 h. The neuroblastoma cell lines, N2a, SH-SY5Y, and SK-N-BE (2), and non-cancer cell lines, 10A, HUVEC, and HL7702, were treated with simvastatin and fluvastatin in a range of doses from 0 to 20 μM and with AA from 0 to 30 μM; N2a, SH-SY5Y SK-N-BE (2), were treated with rosuvastatin in a range of doses from 0 to 100 μM for 72 h. Statins dissolved in DMSO and AA dissolved in ethanol. After 72 h treatment, the medium was added 0.5 mg/ml MTT reagent and incubated at 37°C for 4 h. Subsequently, the supernatant was aspirated, and cells were lysed in 150 µl DMSO, then shaken 10 min at 37°C. The optical density (OD) was measured at 570 and 630 nm using a plate reader.

SH-SY5Y xenografts = test: SH-SY5Y tumor xenograft study; assay type: in vivo, BALB/c nude mice; conditions: AA 150 mg/kg, oral daily
Text: Four weeks old BALB/c nude mice of both sexes were purchased from Vital River Laboratory Animal Technology Co., Ltd. (Beijing, China) and maintained under specific pathogen-free conditions. Male mice were castrated 5 days before cell inoculation. […] Then, all the mice were divided randomly into four groups: control group (Placebo, n = 7), simvastatin group (Sim, n = 6), abiraterone acetate group (AA, n = 6), and combination group (Com, n = 6) including three male mice in each group. […] AA 150 mg/kg/day; combined simvastatin 10 mg/kg/day with AA 75 mg/kg/day. Tumor was harvested after 10 days of dosing, then fixed half of a tumor in 4% buffered formaldehyde for IHC and the other half was stored −80°C for RT-PCR and Western Blots analysis.

HL7702 cells = test: MTT cell viability assay, HL7702; assay type: cell-based; conditions: Homo sapiens, L02, normal cell line, 72 h
Experimental: (§2) Statins dissolved in DMSO and AA dissolved in ethanol. After 72 h treatment, the medium was added 0.5 mg/ml MTT reagent and incubated at 37°C for 4 h. Subsequently, the supernatant was aspirated, and cells were lysed in 150 µl DMSO, then shaken 10 min at 37°C. The optical density (OD) was measured at 570 and 630 nm using a plate reader.

PC-3 cells = system: PC-3 cells; design: key to Results (abiraterone acetate alone): Positive: Abiraterone acetate alone inhibited the progression of cancer; Negative: Abiraterone acetate could not inhibit the progression of cancer; conditions: Prostate Cancer, 98.0 mg/kg/day, oral; ref Supplement [28]; cited from earlier work
MDA-MB-453 cells = system: MDA-MB-453 cells; design: method as in Supplement [31]; key: Positive: Abiraterone acetate alone inhibited the progression of cancer; Negative: Abiraterone acetate could not inhibit the progression of cancer; conditions: Breast Cancer, 285.7 mg/kg/day, oral; ref Supplement [31]; cited from earlier work
10A cells = test: MTT cell viability assay, 10A; assay type: cell-based; conditions: Homo sapiens, normal cell line, 72 h
Experimental: as §2

Caki2 cells = system: Caki2 cells; design: method as in Supplement [32]; key: Positive: Abiraterone acetate alone inhibited the progression of cancer; Negative: Abiraterone acetate could not inhibit the progression of cancer; conditions: Renal Cell Carcinoma, 195.8 mg/kg/day, i.p.; ref Supplement [32]; cited from earlier work
SH-SY5Y cells = test: MTT cell viability assay, SH-SY5Y; assay type: cell-based; conditions: Homo sapiens, NB cell line, 72 h
Experimental: as §1

N2a cells = test: MTT cell viability assay, N2a; assay type: cell-based, mouse; conditions: for IC50: Mus musculus, N2a, NB cell line, MTT, 72 h
Experimental: as §1

22RV1 cells = system: 22RV1 cells; design: key to Results (abiraterone acetate alone): Positive: Abiraterone acetate alone inhibited the progression of cancer; Negative: Abiraterone acetate could not inhibit the progression of cancer; conditions: Prostate Cancer, 200.0 mg/kg, oral; ref Supplement [29]; cited from earlier work
HUVEC cells = test: MTT cell viability assay, HUVEC; assay type: cell-based; conditions: Homo sapiens, normal cell line, 72 h
Experimental: as §2

Compound | IC50 (SK-N-BE (2) cells) [µM] | IC50 (SH-SY5Y cells) [µM] | proliferation, migration, invasion, and sphere formation of NB cells (NB cells) | IC50 (HL7702 cells) [µM] | IC50 (10A cells) [µM] | IC50 (N2a cells) [µM] | IC50 (HUVEC cells) [µM] | further results
CNC(=O)c1ccc(N2C(=S)N(c3cnc(C#N)c(C(F)(F)F)c3)C(=O)C23CCC3)cc1F [ARN509] | – | – | significantly decreased | – | – | – | – | –
CC(=O)O[C@H]1CC[C@@]2(C)C(=CC[C@@H]3[C@@H]2CC[C@]2(C)C(c4cccnc4)=CC[C@@H]32)C1 [Abiraterone acetate] | 9.86 | 2.72 | – | 5.31 | 5.2 | 4.32 | 22.6 | Results (abiraterone acetate alone) (LNCaP cells): Positive; tumor growth (SH-SY5Y xenografts): tumor growth delay; Results (abiraterone acetate alone) (PC-3 cells): Positive; Results (abiraterone acetate alone) (MDA-MB-453 cells): Negative; Results (abiraterone acetate alone) (Caki2 cells): Positive; inhibition rate (N2a cells; N2a cells, 2.5 μM AA): ~20%; Results (abiraterone acetate alone) (22RV1 cells): Negative
CNC(=O)c1ccc(N2C(=S)N(c3ccc(C#N)c(C(F)(F)F)c3)C(=O)C2(C)C)cc1F [MDV3100] | – | – | significantly decreased | – | – | – | – | –
C[C@]1(O)CC[C@H]2[C@@H]3CCC4=CC(=O)CCC4=C3C=C[C@@]21C [R1881] | – | – | – | – | – | – | – | growth of NB (NB cells; AR agonist, in vitro and in vivo): promoted the growth of NB in vitro and in vivo

Continued, in another order:

IC50 (SK-N-BE (2) cells) [µM] | IC50 (SH-SY5Y cells) [µM] | Compound | proliferation, migration, invasion, and sphere formation of NB cells (NB cells) | IC50 (HL7702 cells) [µM] | IC50 (10A cells) [µM] | IC50 (N2a cells) [µM] | IC50 (HUVEC cells) [µM] | further results
8.41 | 6 | CC(C)n1c(/C=C/C(O)CC(O)CC(=O)O)c(-c2ccc(F)cc2)c2ccccc21 (stereo not shown) [Fluvastatin] | – | 29.7 | 13.3 | 5.09 | 8.96 | –
67.6 | > 100 | CC(C)c1nc(N(C)S(C)(=O)=O)nc(-c2ccc(F)cc2)c1/C=C/[C@@H](O)C[C@@H](O)CC(=O)O [Rosuvastatin] | – | – | – | 68.4 | – | –
